Results published in patent publication US20190202836A1, “SELECTIVE DUAL INHIBITORS OF PI3 DELTA AND GAMMA PROTEIN KINASES” (Rhizen Pharmaceuticals SA, priority 2014, published 2019).

Tests used:
[1] = Plasma protein binding (equilibrium dialysis), mouse; assay type: in vitro ADME; details: pH 7.4, 37° C.
Description: (§1) Below is provided the procedure for measuring plasma protein binding (using an equilibrium dialysis method). 745 μL of plasma was transferred into a 2 ml micro centrifuge tube. To that 5 μL of Compound A1 (150 μM) was added. Samples were mixed in the table top vortexer for 2 minutes. 50 μL plasma (n=2) was transferred in a pre-labeled 1.5 mL micro centrifuge tube treated as 0 hour sample.
(§2) The remaining 650 μL plasma sample were incubated for 30 minutes at 37° C. in a water bath. After 30 minute incubation, 50 μL plasma (n=2) was removed in a pre-labelled 1.5 mL micro centrifuge tube treated as 0.5 hour sample. 200 μL of the plasma sample (n=2) was transferred into the sample chamber which was indicated by the red ring. The red insert was placed into the base plate and 350 μL of buffer was transferred into the buffer chamber. Plates were incubated at 37° C. at approximately 100 RPM on an orbital shaker or 20 RPM on an up-and-down shaker for 4 hours. 50 μL of post dialysis-sample from the buffer and the plasma chambers were transferred into a pre-labelled micro centrifuged tube. 50 μL of plasma was added to the buffer samples and an equal volume of buffer (KH2PO4 Buffer pH 7.4) to the collected plasma samples. 150 μL of methanol containing internal standard (Tolbutamide 250 ng/ml) was added to precipitate the protein and release compound. […]

[2] = Plasma protein binding (equilibrium dialysis), rat; assay type: in vitro ADME; details: pH 7.4, 37° C.
Description: as §1, §2

Structure (SMILES): COc1ccc(-c2nn([C@@H](C)c3oc4cccc(F)c4c(=O)c3-c3cccc(F)c3)c3ncnc(N)c23)cc1NS(C)(=O)=O [Compound A1, (S)—N-(5-(4-amino-1-(1-(5-fluoro-3-(3-fluorophenyl)-4-oxo-4H-chromen-2-yl)ethyl)-1H-pyrazolo[3,4-d]pyrimidin-3-yl)-2-methoxyphenyl)methanesulfonamide]
- fraction unbound at 4 h, 1 μM [1]: 0.0239
- fraction unbound at 4 h, 1 μM [2]: 0.0096
